Measured values as given in patent publication US20180214428A1, “3-(1H-INDOL-2-YL)-1H-PYRAZOLO[3,4-B]PYRIDINES AND THERAPEUTIC USES THEREOF” (Samumed, LLC, priority 2015, published 2018).

Experiments:
[1] = test system: Wnt activity (Sp5-Luc reporter gene, SW480 colon carcinoma cells); experiment: Screening assay for Wnt activity: Sp5-Luc reporter gene assay in SW480 cells; type: cell-based, human; details: Homo sapiens, overnight incubation
Text: The screening assay for Wnt activity is described as follows. Reporter cell lines can be generated by stably transducing cancer cell lines (e.g., colon cancer) or primary cells (e.g., IEC-6 intestinal cells) with a lentiviral construct that includes a Wnt-responsive promoter driving expression of the firefly luciferase gene.
SW480 colon carcinoma cells were transduced with a lentiviral vector expressing luciferase with a human Sp5 promoter consisting of a sequence of eight TCF/LEF binding sites. SW480 cells stably expressing the Sp5-Luc reporter gene and a hygromycin resistance gene were selected by treatment with 150 μg/mL of hygromycin for 7 days. These stably transduced SW480 cells were expanded in cell culture and used for all further screening activities. Each compound was dissolved in DMSO as a 10 mM stock and used to prepare compound source plates. Serial dilution (1:3, 10-point dose-response curves starting from 10 μM) and compound transfer was performed using the ECHO 550 (Labcyte, Sunnyvale, Calif.) into 384-well white solid bottom assay plates (Greiner Bio-One) with appropriate DMSO backfill for a final DMSO concentration of 0.1%. For Sp5-Luc reporter gene assays, the cells were plated at 4,000 cells/well in 384-well plates with medium containing 1% fetal bovine serum and incubated overnight at 37° C. and 5% CO2. Following incubation, 20 μl of BrightGlo luminescence reagent (Promega) was added to each well of the 384-well assay plates. The plates were placed on an orbital shaker for 2 min and then luminescence was quantified using the Envision (Perkin Elmer) plate reader. Readings were normalized to DMSO only treated cells, and normalized activities were utilized for EC50 calculations using the dose-response log (inhibitor) vs. response variable slope (four parameters) nonlinear regression feature available in GraphPad Prism 5.0 (or Dotmatics). For EC50 of >10 μM, the percent inhibition at 10 μM is provided.

SW480 colon cancer cells = experiment: Cell viability assay (CellTiter-Blue) in SW480 colon cancer cells; type: cell-based, human; details: Homo sapiens, 96 h, four days, CellTiter-Blue
Method: Representative compounds were screened using the following assay procedure to assess the effect on cell viability as described below.
Each compound was dissolved in DMSO as a 10 mM stock and used to prepare compound source plates. Serial dilution (1:3, 8-point dose-response curves from 10 μM to 0.0045 μM) and compound transfer was performed using the ECHO 550 (Labcyte, Sunnyvale, Calif.) into 96-well clear bottom, black-walled plates (Corning-Costar).
Approximately 2×10^3 SW480 colon cancer cells were seeded into each well and allowed to incubate in the presence or absence of compound for four days at 37° C./5% CO2. Eight replicates of DMSO-treated cells served as controls and cells treated with compound were performed in duplicate.
After incubation, 20 μL of CellTiter-Blue (Promega) was added to each well allowed to incubate for approximately 3 hours. This reagent was a buffered solution which contains resazurin, metabolically active cells were able to reduce rezarurin (blue) into resorufin (pink) which was highly fluorescent. This measured fluorescence was used as a readout for cell viability.
After incubation, the plates were read at Ex 560 nm Em 590 nm (Cytation 3, BioTek). Dose-response curves were generated and EC50 concentration values were calculated using non-linear regression curve fit in the GraphPad Prism (San Diego, Calif.) or Dotmatics' Studies Software (Bishops Stortford, UK). For EC50 of >10 μM, the percent inhibition at 10 μM is provided.

[2] = test system: primary human fibroblasts derived from IPF patients (LL29 cells); experiment: Inhibition of the fibrotic process: αSMA staining in TGF-β1 treated LL29 fibroblasts; type: cell-based; details: Homo sapiens, Fibroblast, 96 h, TGF-β1 20 ng/mL, 4 days, % αSMA positive cells
Text: Representative compounds were screened using primary human fibroblasts (derived from IPF patients) treated with TGF-β1 to determine their ability to inhibit the fibrotic process.
Primary human fibroblasts derived from IPF patients (LL29 cells) [^1Xiaoqiu Liu, et. al., “Fibrotic Lung Fibroblasts Show Blunted Inhibition by cAMP Due to Deficient cAMP Response Element-Binding Protein Phosphorylation”, Journal of Pharmacology and Experimental Therapeutics (2005), 315(2), 678-687; ^2Watts, K. L., et. al., “RhoA signaling modulates cyclin D1 expression in human lung fibroblasts; implications for idiopathic pulmonary fibrosis”, Respiratory Research (2006), 7(1), 88] were obtained from American Type Culture Collection (ATCC) and expanded in F12 medium supplemented with 15% Fetal Bovine Serum and Penicillin/Streptomycin.
Each compound was dissolved in DMSO as a 10 mM stock and used to prepare compound source plates. Serial dilution (1:2, 11-point dose-response curves from 10 μM to […]) and compound transfer was performed using the ECHO 550 (Labcyte, Sunnyvale, Calif.) into 384-well clear bottom assay plates (Greiner Bio-One) with appropriate DMSO backfill for a final DMSO concentration of 0.1%. LL29 cells are plated at 1,500 cells/well in 80 μL/well F12 medium supplemented with 1% Fetal Bovine Serum. One hour after addition of the cells, TGF-01 (Peprotech; 20 ng/mL) was added to the plates to induce fibrosis (ref. 1 and 2 above). Wells treated with TGF-β1 and containing DMSO were used as controls. Cells were incubated at 37° C. and 5% CO2 for 4 days. Following incubation for 4 days, SYTOX green nucleic acid stain (Life Technologies [Thermo Fisher Scientific]) was added to the wells at a final concentration of 1 μM and incubated at room temperature for 30 min. Cells were then fixed using 4% formaldehyde (Electron Microscopy Sciences), washed 3 times with PBS followed by blocking and permeabilization using 3% Bovine Serum Albumin (BSA; Sigma) and 0.3% Triton X-100 (Sigma) in PBS. Cells were then stained with antibody specific to α-smooth muscle actin (aSMA; Abcam) (ref. 1 and 2 above) in 3% Bovine Serum Albumin (BSA; Sigma) and 0.3% Triton X-100 (Sigma) in PBS, and incubated overnight at 4° C. Cells were then washed 3 times with PBS, followed by incubation with Alexa Flor-647 conjugated secondary antibody (Life Technologies [Thermo Fisher Scientific]) and DAPI at room temperature for 1 hour. Cells were then washed 3 times with PBS and plates were sealed for imaging. αSMA staining was imaged by excitation at 630 nm and emission at 665 nm and quantified using the Compartmental Analysis program on the CellInsight CX5 (Thermo Scientific). Dead or apoptotic cells were excluded from analysis based on positive SYTOX green staining. % of total cells positive for aSMA were counted in each well and normalized to the average of 11 wells treated with TGF-01 on the same plate using Dotmatics' Studies Software. The normalized averages (fold change over untreated) of 3 replicate wells for each compound concentration were used to create dose-responses curves and EC50 values were calculated using non-linear regression curve fit in the Dotmatics' Studies Software. For EC50 of >10 μM, the percent inhibition at 10 μM is provided.

IL-6 = IL-6 inhibition in LPS-stimulated THP-1 monocytes (HTRF); type: cell-based, human; details: Homo sapiens; THP-1 cells, 500 ng/mL LPS, 22 h, HTRF IL-6 readout; 10-point dose-response from 10 μM
Method: Human monocyte cell line (THP-1 cells; Catalog # TIB-202, ATCC, Manassas, Va.) were cultured in Roswell Park Memorial Institute (RPMI) 1640 Medium (Catalog #21870-100, Buffalo, N.Y.) with 1% L-glutamine, 1% HEPES, 1% Sodium Pyruvate, 2% Sodium Bicarbonate supplemented with 100 units/mL penicillin, 50 μg/mL streptomycin, 2-mercaptoethanol (0.05 mM) [basal medium] and 10% fetal bovine serum (Catalog #16140089, Life Technologies, Carlsbad, Calif.) at 37° C. and 5% CO2.
THP-1 cells were cultured in basal media with 1% FBS for 24 hours before the start of the assay. Each compound was dissolved in DMSO as a 10 mM stock and used to prepare compound source plates. Serial dilution (1:3, 10-point dose-response curves starting from 10 μM) and compound transfer was performed using the ECHO 550 (Labcyte, Sunnyvale, Calif.) into 384-well white low volume assay plates (Greiner Bio-One) with appropriate DMSO backfill for a final DMSO concentration of 0.1%. THP-1 cells were plated at 5000 cells/well in the 384-well plates and incubated at 37° C. for 2 h. 500 ng/mL of LPS was added after 2 hours and cells were incubated for another 22 hours at 37° C. Plates were spun in a centrifuge for 1 minute at […] and a mixture of anti-IL6 XL665, and anti-IL6 Cryptate diluted in reconstitution buffer (Cisbio Inc.) was added to each well. Following incubation for 3 hrs at room temperature, Homogeneous Time-Resolved Fluorescence (HTRF) was measured using the Envision (Perkin Elmer) at 665 nm and […]. The ratio of fluorescence at 665 nm to 620 nm was used as a readout for IL6 quantification. All samples were processed in duplicate. Readings were normalized to DMSO treated cells and normalized activities were utilized for EC50 calculations using the dose-response log (inhibitor) vs. response variable slope (four parameters) nonlinear regression feature available in GraphPad Prism 5.0 (or Dotmatics). For EC50 of >10 μM, the percent inhibition at 10 μM is provided.

EC50 [1] [nM] | EC50 (SW480 colon cancer cells) [nM] | EC50 (IL-6) [nM] | Compound | EC50 [2] [nM]
154 | 1050 | 213 | Nc1cncc(-c2cnc3[nH]nc(-c4cc5c(N6CCCCC6)cccc5[nH]4)c3c2)c1 [Compound 147, 5-(3-(4-(Piperidin-1-yl)-1H-indol-2-yl)-1H-pyrazolo[3,4-b]pyridin-5-yl) pyridin-3-amine] | 620
1460 | 1860 | 2310 | CN(C)Cc1cncc(-c2cnc3[nH]nc(-c4cc5c(N6CCCCC6)cccc5[nH]4)c3c2)c1 [Compound 157, N,N-Dimethyl-1-(5-(3-(4-(piperidin-1-yl)-1H-indol-2-yl)-1H-pyrazolo[3,4-b]pyridin-5-yl)pyridin-3-yl)methanamine] | 1230
1080 | 9940 | 1190 | O=C(Nc1cncc(-c2cnc3[nH]nc(-c4cc5c(N6CCCCC6)cccc5[nH]4)c3c2)c1)C1CC1 [Compound 164, N-(5-(3-(4-(piperidin-1-yl)-1H-indol-2-yl)-1H-pyrazolo[3,4-b]pyridin-5-yl)pyridin-3-yl)cyclopropanecarboxamide] | 4330
3420 | 3270 | 477 | Cc1ccncc1-c1cnc2[nH]nc(-c3cc4c(N5CCN(C)CC5)cccc4[nH]3)c2c1 [Compound 205, 3-(4-(4-Methylpiperazin-1-yl)-1H-indol-2-yl)-5-(4-methylpyridin-3-yl)-1H-pyrazolo[3,4-b]pyridine] | 2560
1300 | 1940 | 173 | CC(C)Nc1cncc(-c2cnc3[nH]nc(-c4cc5c(N6CCN(C)CC6)cccc5[nH]4)c3c2)c1 [Compound 212, N-Isopropyl-5-(3-(4-(4-methylpiperazin-1-yl)-1H-indol-2-yl)-1H-pyrazolo[3,4-b]pyridin-5-yl)pyridin-3-amine] | 1480
732 | 3460 | 350 | CC(C)(C)C(=O)Nc1cncc(-c2cnc3[nH]nc(-c4cc5ccccc5[nH]4)c3c2)c1 [Compound 235, N-(5-(3-(1H-Indol-2-yl)-1H-pyrazolo[3,4-b]pyridin-5-yl)pyridin-3-yl) pivalamide] | 282

The remaining lines, values behind:

Compound | EC50 [1] [nM] | EC50 (SW480 colon cancer cells) [nM] | EC50 (IL-6) [nM] | EC50 [2] [nM]
CN(C)Cc1cncc(-c2cnc3[nH]nc(-c4cc5c(-c6cccc(F)c6)cccc5[nH]4)c3c2)c1 [Compound 10, 1-(5-(3-(4-(3-Fluorophenyl)-1H-indol-2-yl)-1H-pyrazolo[3,4-b]pyridin-5-yl)pyridin-3-yl)-N,N-dimethylmethanamine] | 1060 | 3440 | 1560 | 4390
CC(C)Nc1cncc(-c2cnc3[nH]nc(-c4cc5c(-c6ccccc6F)cccc5[nH]4)c3c2)c1 [Compound 57, 5-(3-(4-(2-Fluorophenyl)-1H-indol-2-yl)-1H-pyrazolo[3,4-b]pyridin-5-yl)-N-isopropylpyridin-3-amine] | 371 | 1820 | 753 | 411
CCCCC(=O)Nc1cncc(-c2cnc3[nH]nc(-c4cc5c(-c6ccccc6F)cccc5[nH]4)c3c2)c1 [Compound 64, N-(5-(3-(4-(2-Fluorophenyl)-1H-indol-2-yl)-1H-pyrazolo[3,4-b]pyridin-5-yl)pyridin-3-yl)pentanamide] | 796 | 3880 | 3280 | 1770
CCCC(=O)Nc1cncc(-c2cnc3[nH]nc(-c4cc5c(-c6ccncc6)cccc5[nH]4)c3c2)c1 [Compound 110, N-(5-(3-(4-(Pyridin-4-yl)-1H-indol-2-yl)-1H-pyrazolo[3,4-b]pyridin-5-yl)pyridin-3-yl)butyramide] | 365 | 2260 | 45 | 2070
CCC(=O)Nc1cncc(-c2cnc3[nH]nc(-c4cc5c(N6CCCCC6)cccc5[nH]4)c3c2)c1 [Compound 145, N-(5-(3-(4-(Piperidin-1-yl)-1H-indol-2-yl)-1H-pyrazolo[3,4-b]pyridin-5-yl)pyridin-3-yl)propionamide] | 290 | 3670 | 2640 | 1410
